Data taken from patent US20020028188A1, “Method of preparing particularly skin-compatible cosmetic or dermatological cleansing preparations” (priority 1999, published 2002).

Test system: surface of the skin
Experiment: adsorption of lauryl ether sulfate on the skin (simulated washing operation, forearm, desorption, ion-pair chromatography)
Type: in vivo, human
Conditions: significance: Yes
Method: The method which we have developed for determining the adsorption of lauryl ether sulfate on the skin simulates a washing operation as occurs, for example, during daily showering: Firstly, the inner sides of the forearms are divided into a number of test areas using insulating tape. The area to be treated is then wetted with approximately 50 ml of mains water (T=38±1° C.). The lauryl ether sulfate is then applied. Throughout the application period of 45 s, the test subject distributes the lauryl ether sulfate over the area using 2 fingers in uniform circular movements. At the end of the application period, the test area is rinsed with approximately 950 ml of mains water (T=38±1° C.) and carefully patted dry using a clean cellulose cloth. For the desorption, a plastic ring with an internal diameter of 25 mm is pressed firmly onto the inner side of the test subject's forearm. 1000 μl of a 1% Triton X-100 solution are then introduced into the ring. The tip of a round Teflon-coated spatula is then used to scrape the skin uniformly for 1 min. This leads to suspension of corneocytes. To work up the samples for analysis, the samples are centrifuged and 800 μl of the supernatant are drawn off. The supernatant is analyzed with regard to its lauryl ether sulfate content using ion-pair chromatography. The effectiveness of the desorption method described is 79%, i.e. 79% of the amount of lauryl ether sulfate actually present on the skin are included.

[1] = cosurfactant concentration 3% added to a lauryl ether sulfate solution

For `CCCCCCCCCCO[C@@H]1O[C@H](CO)[C@@H](O)[C@H](O)[C@H]1O` [Decyl glucoside], the “Effect on the adsorbed amount of lauryl ether sulfate (Reduction by)” value (shortened to “Effect on the adsorbed amount … (Reduction by)”) (cosurfactant concentration 5% added to a lauryl ether sulfate solution) was “Reduction by 29%”.

For `CCCCCCCCCCCC(=O)O` [Lauric acid], the “Effect on the adsorbed amount … (Reduction by)” value (cosurfactant concentration 1%, pH9, added to a lauryl ether sulfate solution) was “Reduction by 15%”.

In the case of Cocamidopropylbetaine, the “Effect on the adsorbed amount … (Reduction by)” value [1] is reported as “Reduction by 31%”.

For Disodium laureth sulfosuccinate, the “Effect on the adsorbed amount … (Reduction by)” value [1] was “Reduction by 28%”.

In the case of Sodium cocoamphoacetate, the “Effect on the adsorbed amount … (Reduction by)” value [1] is reported as “Reduction by 27%”.
